Reference: patent US20140342025A1, “ARJUNOLIC ACID FOR INCREASING SEBUM PRODUCTION” (EVONIK INDUSTRIES AG, priority 2011, published 2014)

Test: Percutaneous absorption study on a pig skin model
Assay type: in vitro ADME
Conditions: arjunolic acid in combination with 1,2-pentanediol in cosmetic formulation vs. formulation without 1,2-pentanediol; FIG. 2
Experimental: In practice, the study was performed in accordance with a current protocol, as described for example in S. Richert, A. Schrader, K. Schrader, Int. J. Cosmet. Sci. 2003, 25, 5-13.

CC1(C)CC[C@]2(C(=O)O)CC[C@]3(C)C(=CC[C@@H]4[C@@]5(C)C[C@@H](O)[C@H](O)[C@@](C)(CO)[C@@H]5CC[C@]43C)[C@@H]2C1 [arjunolic acid]
bioavailability (skin penetration) as a function of solvent: increase in bioavailability
